A short description of this data set: In-Vitro Release Test (Franz Cell diffusion apparatus, 0.45 um Durapore HVLP membrane). It is filed as physicochemical. The note with it: 0.5-6 hours at 35° C. Here is the method: A 0.45 um Durapore HVLP membrane was used between the donor and receptor compartments. The receptor fluid used for analysis of lidocaine HCl was 0.2M NaH2PO4/EtOH/SDS (69/30/1). The receptor fluid used for analysis of metronidazole was 600 mL Ethanol (USP) and 400 mL Phosphate Buffer (1.3 g Na2HPO4 and 1.5 g KH2PO4). The receptor fluid used for analysis of allantoin was 10 mM KH2PO4 buffer (pH=4.7). The sampling of the receptor fluid was performed at 0.5, 1, 2, 4 and 6 hours at 35° C. The concentration of the released actives in the collected samples of the receptor fluid was determined by HPLC analysis. The HPLC mobile phase used for analysis of lidocaine HCl was 0.2M NaH2PO4/EtOH/SDS (69/30/1). The HPLC mobile phase used for analysis of metronidazole was 600 mL Ethanol (USP) and 400 mL Phosphate Buffer (1.3 g Na2HPO4 and 1.5 g KH2PO4). The HPLC mobile phase used for analysis of allantoin was ACN/Water (90/10).

Molecules are shown by their SMILES. Counter-ions that a name gives are not always drawn.

This note sets out measurements from patent US9132291B2, “Water-in-oil emulsion compositions containing gellan gum for topical delivery of active ingredients to the skin or mucosa” (DFB Technology, Ltd., priority 2010, dated 2015).

On to `NC(=O)NC1NC(=O)NC1=O` (stereo not drawn) [allantoin, Allantoin], for which the “rate of release of allantoin” value (Formulas D, E, F (0%, 0.45%, 0.75% gellan gum; 0.1% allantoin) W/O emulsion, receptor fluid 10 mM KH2PO4 buffer pH 4.7, FIG. 3 and FIG. 4) is “increased as the concentration of gellan gum increased”.

On to `Cc1ncc([N+](=O)[O-])n1CCO` [metronidazole, Metronidazole], for which the “rate of release of metronidazole” value (Formulas A, B, C (0%, 0.45%, 0.75% gellan gum; 0.75% metronidazole) W/O emulsion, receptor fluid ethanol/phosphate buffer, FIG. 1 and FIG. 2) is reported as “increased as the concentration of gellan gum increased”.

For `CCN(CC)CC(=O)Nc1c(C)cccc1C` [lidocaine HCl, Lidocaine HCl], the “rate of release of lidocaine HCl” value (Formulas G, H, I (0%, 0.45%, 0.75% gellan gum; 2.0% lidocaine HCl) W/O emulsion, receptor fluid 0.2M NaH2PO4/EtOH/SDS (69/30/1), FIG. 5 and FIG. 6) was “increased as the concentration of gellan gum increased”.
